The values below come from ChEMBL document CHEMBL1201862, “PubChem BioAssay data set” (2004).

Activity calls are given as the source filed them.

Among the targets are Cytochrome P450 2C9 (Homo sapiens, UniProt P11712); Cytochrome P450 3A4 (Homo sapiens, UniProt P08684); Cytochrome P450 2D6 (Homo sapiens, UniProt P10635).
Another data set addresses T1, Cytochrome P450 1A2 (Homo sapiens, UniProt P05177).
T1 sequence (P05177 whole entry): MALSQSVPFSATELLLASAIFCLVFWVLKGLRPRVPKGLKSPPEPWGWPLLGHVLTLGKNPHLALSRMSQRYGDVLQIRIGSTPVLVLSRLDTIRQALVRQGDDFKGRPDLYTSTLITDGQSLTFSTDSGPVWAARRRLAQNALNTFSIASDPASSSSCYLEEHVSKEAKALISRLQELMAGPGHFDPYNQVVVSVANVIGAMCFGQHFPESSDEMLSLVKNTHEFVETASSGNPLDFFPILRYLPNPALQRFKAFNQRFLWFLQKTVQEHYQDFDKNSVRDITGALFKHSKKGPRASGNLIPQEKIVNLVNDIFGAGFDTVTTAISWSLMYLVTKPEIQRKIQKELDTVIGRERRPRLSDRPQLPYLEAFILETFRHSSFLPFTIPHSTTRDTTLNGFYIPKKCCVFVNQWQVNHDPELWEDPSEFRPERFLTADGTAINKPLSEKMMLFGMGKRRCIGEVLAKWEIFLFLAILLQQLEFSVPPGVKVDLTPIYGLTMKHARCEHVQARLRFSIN

A further data set has as its target Cytochrome P450 2C19 (Homo sapiens, UniProt P33261). Nature of the data set: Cytochrome panel assay with activity outcomes. Panel member name: p450-cyp2c19 Compounds with AC50 equal or less than 10 uM are considered active. The format is functional.
Data set [1] has as its target Voltage-dependent T-type calcium channel subunit alpha-1H (Homo sapiens, UniProt O95180). Type of data set: functional.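 Also: channel activity triggered by adding a high calcium stimulation buffer.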
Data set [2] deals with T2, Sphingosine 1-phosphate receptor 4 (Homo sapiens, UniProt O95977).
T2 sequence (O95977 whole entry): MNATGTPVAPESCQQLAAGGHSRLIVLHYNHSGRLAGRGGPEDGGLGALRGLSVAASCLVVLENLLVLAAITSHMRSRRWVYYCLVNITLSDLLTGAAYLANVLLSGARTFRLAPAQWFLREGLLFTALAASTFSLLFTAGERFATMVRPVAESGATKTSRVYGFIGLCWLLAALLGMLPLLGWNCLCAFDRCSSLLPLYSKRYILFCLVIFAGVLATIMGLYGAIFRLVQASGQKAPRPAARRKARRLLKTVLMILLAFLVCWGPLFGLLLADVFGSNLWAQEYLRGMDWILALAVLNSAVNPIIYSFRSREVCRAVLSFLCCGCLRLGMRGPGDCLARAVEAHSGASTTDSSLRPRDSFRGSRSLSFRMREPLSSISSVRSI
In words: Fluorescence dose response cell-based high throughput screening assay for agonists of the Sphingosine 1-Phosphate Receptor 4 (S1P4). [Related pubchem assays: 1509 (Primary screen.), 1523 (Confirmation screen in triplicates.)]. Type of data set: functional.

For data set [3], the target named is Eukaryotic translation initiation factor 4E (Mus musculus, UniProt P63073). In words: eIF4E–eIF4G protein interaction inhibitors, dose response, biochemical, TR-FRET (AID 855).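 Also: potency for disrupting eIF4E binding to eIF4GI seen as loss of FRET.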 The format is functional. (Time-resolved FRET reads energy transfer from a long-lived donor to a nearby acceptor.)
Data set [4] deals with Sphingosine 1-phosphate receptor 1 (Homo sapiens, UniProt P21453). Nature of the data set: Fluorescence-based counterscreen assay for S1P4 agonists: Cell-based dose response high throughput screening assay to identify agonists of the Sphingosine 1-Phosphate Receptor 1 (S1P1). [Related pubchem assays (depositor defined):AID1509, AID1523, AID1801, AID463107, AID463118, AID463119, AID463122, AID463123, AID463129, AID463225, AID504400, AID504460]. The format is functional. A general note: A counterscreen serves to expose hits that act by an unwanted route or on another target.

The target of the next data set is Mu-type opioid receptor (Homo sapiens, UniProt P35372). Nature of the data set: HTS Image-Based Screen for Agonists of the MOR Receptor. [Related pubchem assays (depositor defined):AID1777, AID1785, AID1786, AID2133]. The format is functional.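 Also: imaging of beta-arrestin GFP recruitment into spots after receptor activation.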
The target in data set [5] is T3, Delta-type opioid receptor (Homo sapiens, UniProt P41143). Nature of the data set: HTS Image-Based Screen for Agonists of the DOR Receptor. [Related pubchem assays (depositor defined):AID1777, AID1786, AID2133]. The format is functional.
Data set [6] deals with T4, Kappa-type opioid receptor (Homo sapiens, UniProt P41145). Type of data set: functional.
For a further data set, the target named is Beta-galactosidase (Escherichia coli, UniProt Q8VNN2). The format is functional.
The target in data set [7] is T3, Delta-type opioid receptor. Nature of the data set: HTS Image-Based Screen for Antagonists of the DOR Receptor. [Related pubchem assays (depositor defined):AID1777, AID1785, AID1786, AID2133]. The format is functional.
Data set [8] has as its target T4, Kappa-type opioid receptor. Type of data set: functional. This is another data set of the same source.
A further data set concerns the target Genome polyprotein (dengue virus type 2, UniProt P29990). In words: Dengue-2 NS5 methyltransferase inhibitors, primary screen, biochemical, confirmation dose response (AID 588689). Type of data set: functional.
In a further data set the test system is Vero. Nature of the data set: Vero cell cytotoxicity, cytotoxicity control for flavivirus capping enzyme inhibitors (AID 588742). The format is functional. The conditions noted are these: Chlorocebus sabaeus.
For data set [9], the target named is T5, Ubiquitin-conjugating enzyme E2 N (Homo sapiens, UniProt P61088).
T5 sequence (P61088 whole entry): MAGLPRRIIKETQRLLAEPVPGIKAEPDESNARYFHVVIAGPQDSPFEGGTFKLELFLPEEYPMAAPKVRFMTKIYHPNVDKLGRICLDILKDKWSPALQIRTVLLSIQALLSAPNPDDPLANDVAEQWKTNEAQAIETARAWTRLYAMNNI
Type of data set: functional.

A further data set addresses T6, Protein RecA (Mycobacterium tuberculosis, UniProt P9WHJ3).
T6 sequence (P9WHJ3 whole entry): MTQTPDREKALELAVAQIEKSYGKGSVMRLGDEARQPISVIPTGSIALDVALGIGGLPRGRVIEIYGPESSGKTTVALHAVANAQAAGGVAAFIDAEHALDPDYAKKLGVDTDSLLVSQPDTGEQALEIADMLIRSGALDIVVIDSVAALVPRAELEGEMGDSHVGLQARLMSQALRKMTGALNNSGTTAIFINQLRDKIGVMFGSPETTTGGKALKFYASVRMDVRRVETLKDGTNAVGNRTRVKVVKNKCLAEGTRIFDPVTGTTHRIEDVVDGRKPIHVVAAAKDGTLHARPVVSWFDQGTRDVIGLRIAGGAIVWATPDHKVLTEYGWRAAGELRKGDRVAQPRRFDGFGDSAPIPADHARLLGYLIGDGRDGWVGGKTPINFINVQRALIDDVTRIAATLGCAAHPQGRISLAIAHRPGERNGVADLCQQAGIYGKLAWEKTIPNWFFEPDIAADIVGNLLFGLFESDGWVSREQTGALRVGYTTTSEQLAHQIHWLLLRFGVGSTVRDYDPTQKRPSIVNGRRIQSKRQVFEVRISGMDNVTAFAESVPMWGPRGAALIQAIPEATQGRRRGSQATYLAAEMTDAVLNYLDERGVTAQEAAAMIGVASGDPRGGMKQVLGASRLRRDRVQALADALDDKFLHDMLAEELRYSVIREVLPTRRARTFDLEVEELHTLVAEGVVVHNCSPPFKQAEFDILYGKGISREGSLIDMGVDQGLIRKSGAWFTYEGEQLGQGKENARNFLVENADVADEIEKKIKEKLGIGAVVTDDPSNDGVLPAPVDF
In words: Fluorescence Cell-Free Homogeneous Dose Retest to Identify Inhibitors of RecA-Intein Splicing Activity. [Related pubchem assays (depositor defined):AID2097, AID2223, AID489010, AID492950]. Type of data set: functional.

Data set [10] addresses Hepatocyte nuclear factor 4-alpha (Homo sapiens, UniProt P41235). Type of data set: functional, cell-based.
The target of data set [11] is T5, Ubiquitin-conjugating enzyme E2 N. Type of data set: functional. This is another data set of the same source.
Data set [12] in a line: Shn3 3'UTR reporter inhibitors, dose response, cell-based, Clone20 osteoblasts, firefly luciferase, cherry-picked (AID 624132).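 Also: firefly luciferase luminescence from reporter carrying the Shn3 3'UTR in osteoblasts.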 Type of data set: functional.
Data set [13] is described as follows: control 3'UTR Renilla luciferase suppression, dose response, counter-screen for Shn3 inhibitor project, cell-based, Clone20-Shn3RL, cherry-picked (AID 624133). Type of data set: functional.
Data set [14] has as its target T7, Replicative DNA helicase DnaB (Mycobacterium tuberculosis, UniProt P9WMR3).
T7 sequence (P9WMR3 whole entry): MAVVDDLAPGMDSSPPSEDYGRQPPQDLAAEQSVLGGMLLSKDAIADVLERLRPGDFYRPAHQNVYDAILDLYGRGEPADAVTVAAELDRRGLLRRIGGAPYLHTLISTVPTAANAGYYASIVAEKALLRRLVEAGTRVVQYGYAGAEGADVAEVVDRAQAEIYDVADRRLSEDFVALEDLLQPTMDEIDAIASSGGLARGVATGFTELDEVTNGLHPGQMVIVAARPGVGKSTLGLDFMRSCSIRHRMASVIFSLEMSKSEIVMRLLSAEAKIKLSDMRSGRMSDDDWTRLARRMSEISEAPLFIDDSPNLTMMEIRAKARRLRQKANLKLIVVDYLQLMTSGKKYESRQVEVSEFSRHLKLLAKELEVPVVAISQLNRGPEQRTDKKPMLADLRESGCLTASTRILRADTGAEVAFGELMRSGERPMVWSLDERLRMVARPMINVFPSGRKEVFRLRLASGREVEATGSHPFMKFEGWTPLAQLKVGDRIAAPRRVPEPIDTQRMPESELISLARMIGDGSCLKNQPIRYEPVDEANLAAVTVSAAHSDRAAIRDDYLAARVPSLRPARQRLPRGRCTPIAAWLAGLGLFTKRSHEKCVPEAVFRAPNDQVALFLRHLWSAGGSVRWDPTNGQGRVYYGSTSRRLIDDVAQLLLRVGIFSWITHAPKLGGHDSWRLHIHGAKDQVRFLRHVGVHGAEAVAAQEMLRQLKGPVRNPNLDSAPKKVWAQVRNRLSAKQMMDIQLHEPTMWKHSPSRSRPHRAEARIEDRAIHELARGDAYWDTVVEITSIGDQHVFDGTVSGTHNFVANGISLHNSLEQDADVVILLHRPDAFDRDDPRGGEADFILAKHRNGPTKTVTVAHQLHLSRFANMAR
In words: DnaB intein splicing inhibitors, dose response, biochemical, cell-free fluorescence (AID 449749). The format is functional.

Data set [15] can be described thus: Intein inhibitors as potential Tuberculosis drugs, a cytotoxicity screen. [Related pubchem assays (depositor defined):AID2221, AID2223, AID434968, AID435010, AID449749, AID449750, AID489010]. Type of data set: functional.
A further data set deals with T8, Bcl-2-related protein A1 (Mus musculus, UniProt Q07440).
T8 sequence (Q07440 whole entry): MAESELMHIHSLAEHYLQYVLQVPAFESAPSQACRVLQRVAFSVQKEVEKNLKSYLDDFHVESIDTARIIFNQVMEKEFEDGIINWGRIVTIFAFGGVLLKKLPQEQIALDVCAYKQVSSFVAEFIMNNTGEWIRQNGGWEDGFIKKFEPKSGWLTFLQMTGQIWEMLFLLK
The format is functional.

The test system of a further data set is HEK293. Nature of the data set: cells. The conditions noted are these: Homo sapiens.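 Also: cells exposed to compound for 14 hours overnight before viability readout.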
Another data set addresses Tumor necrosis factor (Homo sapiens, UniProt P01375). In words: TNFa-triggered NF-kB activation inhibitors, SAR follow-up, cell-based, revised (AID 2337). The format is functional.
In data set [16] the target is Nucleotide-binding oligomerization domain-containing protein 1 (Homo sapiens, UniProt Q9Y239). In words: NOD1 signaling inhibitors, SAR follow-up, revised (AID 2333). Type of data set: functional.
Data set [17] has as its target Nucleotide-binding oligomerization domain-containing protein 2 (Homo sapiens, UniProt Q9HC29). Nature of the data set: PubChem AID 2334. Type of data set: functional.

T3 sequence (P41143 whole entry): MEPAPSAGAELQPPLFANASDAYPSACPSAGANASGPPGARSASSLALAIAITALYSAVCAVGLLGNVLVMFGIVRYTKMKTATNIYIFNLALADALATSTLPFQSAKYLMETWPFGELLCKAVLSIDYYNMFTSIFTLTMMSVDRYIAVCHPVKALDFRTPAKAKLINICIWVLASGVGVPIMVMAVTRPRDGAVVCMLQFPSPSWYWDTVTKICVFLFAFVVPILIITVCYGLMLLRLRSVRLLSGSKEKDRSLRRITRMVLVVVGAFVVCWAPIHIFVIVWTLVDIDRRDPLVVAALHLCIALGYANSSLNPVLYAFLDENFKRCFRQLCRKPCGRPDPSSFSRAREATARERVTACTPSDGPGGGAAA
T4 sequence (P41145 whole entry): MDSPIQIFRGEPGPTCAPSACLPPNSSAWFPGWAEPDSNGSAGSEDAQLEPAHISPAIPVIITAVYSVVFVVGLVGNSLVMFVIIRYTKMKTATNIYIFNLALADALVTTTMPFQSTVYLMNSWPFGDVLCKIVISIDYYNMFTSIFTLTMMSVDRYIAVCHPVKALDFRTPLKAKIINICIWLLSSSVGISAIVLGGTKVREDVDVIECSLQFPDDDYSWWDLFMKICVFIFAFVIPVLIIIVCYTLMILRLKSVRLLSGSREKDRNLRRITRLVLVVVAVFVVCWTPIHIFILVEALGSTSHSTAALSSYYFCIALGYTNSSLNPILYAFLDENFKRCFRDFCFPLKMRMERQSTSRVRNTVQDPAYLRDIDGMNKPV
Sequence of Voltage-dependent T-type calcium channel subunit alpha-1H (O95180 whole entry): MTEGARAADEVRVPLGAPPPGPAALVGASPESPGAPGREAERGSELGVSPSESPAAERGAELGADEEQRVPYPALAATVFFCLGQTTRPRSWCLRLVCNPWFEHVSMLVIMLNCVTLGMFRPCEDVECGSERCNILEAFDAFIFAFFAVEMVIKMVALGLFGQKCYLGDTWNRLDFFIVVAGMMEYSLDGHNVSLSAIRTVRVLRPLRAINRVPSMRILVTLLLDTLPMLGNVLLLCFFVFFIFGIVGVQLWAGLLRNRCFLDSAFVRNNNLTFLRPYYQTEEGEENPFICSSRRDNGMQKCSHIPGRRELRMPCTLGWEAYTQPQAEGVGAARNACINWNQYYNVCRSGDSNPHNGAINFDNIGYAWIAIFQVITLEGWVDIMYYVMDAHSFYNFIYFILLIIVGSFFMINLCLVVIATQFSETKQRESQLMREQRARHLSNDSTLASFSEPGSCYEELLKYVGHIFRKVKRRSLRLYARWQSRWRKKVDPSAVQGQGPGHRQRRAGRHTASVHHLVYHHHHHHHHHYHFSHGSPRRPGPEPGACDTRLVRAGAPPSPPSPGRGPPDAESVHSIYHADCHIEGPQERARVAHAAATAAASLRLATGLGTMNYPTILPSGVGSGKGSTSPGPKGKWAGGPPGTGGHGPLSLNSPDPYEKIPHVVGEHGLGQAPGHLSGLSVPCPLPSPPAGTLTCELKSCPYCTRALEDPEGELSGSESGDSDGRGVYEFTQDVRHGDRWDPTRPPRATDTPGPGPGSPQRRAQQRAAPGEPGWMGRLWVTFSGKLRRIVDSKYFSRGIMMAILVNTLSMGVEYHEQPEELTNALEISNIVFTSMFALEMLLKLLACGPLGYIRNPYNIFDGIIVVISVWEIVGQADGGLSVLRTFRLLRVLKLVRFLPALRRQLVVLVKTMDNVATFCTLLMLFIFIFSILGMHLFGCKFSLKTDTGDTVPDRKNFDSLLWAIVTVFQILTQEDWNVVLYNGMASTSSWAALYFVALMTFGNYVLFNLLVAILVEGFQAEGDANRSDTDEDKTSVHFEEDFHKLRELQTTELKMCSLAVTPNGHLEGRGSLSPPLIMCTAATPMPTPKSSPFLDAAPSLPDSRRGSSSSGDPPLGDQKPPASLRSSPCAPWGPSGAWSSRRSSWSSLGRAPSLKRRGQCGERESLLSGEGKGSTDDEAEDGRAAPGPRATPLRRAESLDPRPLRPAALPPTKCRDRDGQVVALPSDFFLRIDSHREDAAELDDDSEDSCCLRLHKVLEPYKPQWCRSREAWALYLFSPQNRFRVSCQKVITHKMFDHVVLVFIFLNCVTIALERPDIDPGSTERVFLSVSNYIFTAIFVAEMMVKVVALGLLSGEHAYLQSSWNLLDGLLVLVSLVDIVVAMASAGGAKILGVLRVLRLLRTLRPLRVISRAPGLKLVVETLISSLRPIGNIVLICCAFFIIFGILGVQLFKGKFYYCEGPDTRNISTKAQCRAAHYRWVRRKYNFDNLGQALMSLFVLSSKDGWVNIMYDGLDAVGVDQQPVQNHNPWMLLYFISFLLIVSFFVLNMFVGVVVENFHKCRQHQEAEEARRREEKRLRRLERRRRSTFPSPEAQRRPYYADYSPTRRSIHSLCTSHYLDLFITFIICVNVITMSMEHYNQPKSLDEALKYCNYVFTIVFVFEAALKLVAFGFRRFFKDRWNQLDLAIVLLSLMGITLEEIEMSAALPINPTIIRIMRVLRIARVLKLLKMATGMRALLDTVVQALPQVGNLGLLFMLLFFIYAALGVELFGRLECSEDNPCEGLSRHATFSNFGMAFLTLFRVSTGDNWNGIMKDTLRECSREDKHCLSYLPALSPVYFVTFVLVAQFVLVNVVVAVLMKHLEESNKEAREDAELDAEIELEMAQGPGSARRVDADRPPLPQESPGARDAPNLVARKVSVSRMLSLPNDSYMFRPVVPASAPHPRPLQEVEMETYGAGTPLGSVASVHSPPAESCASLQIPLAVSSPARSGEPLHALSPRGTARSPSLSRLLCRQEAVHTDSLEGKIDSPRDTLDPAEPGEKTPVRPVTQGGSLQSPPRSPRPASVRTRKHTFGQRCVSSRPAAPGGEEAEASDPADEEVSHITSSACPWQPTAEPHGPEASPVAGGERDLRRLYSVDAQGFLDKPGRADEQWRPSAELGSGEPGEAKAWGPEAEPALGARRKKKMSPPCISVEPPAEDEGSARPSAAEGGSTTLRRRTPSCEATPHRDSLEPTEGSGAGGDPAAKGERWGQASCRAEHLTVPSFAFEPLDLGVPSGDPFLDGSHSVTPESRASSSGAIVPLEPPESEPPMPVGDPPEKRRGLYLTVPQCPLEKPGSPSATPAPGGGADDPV
Sequence of Sphingosine 1-phosphate receptor 1 (P21453 whole entry): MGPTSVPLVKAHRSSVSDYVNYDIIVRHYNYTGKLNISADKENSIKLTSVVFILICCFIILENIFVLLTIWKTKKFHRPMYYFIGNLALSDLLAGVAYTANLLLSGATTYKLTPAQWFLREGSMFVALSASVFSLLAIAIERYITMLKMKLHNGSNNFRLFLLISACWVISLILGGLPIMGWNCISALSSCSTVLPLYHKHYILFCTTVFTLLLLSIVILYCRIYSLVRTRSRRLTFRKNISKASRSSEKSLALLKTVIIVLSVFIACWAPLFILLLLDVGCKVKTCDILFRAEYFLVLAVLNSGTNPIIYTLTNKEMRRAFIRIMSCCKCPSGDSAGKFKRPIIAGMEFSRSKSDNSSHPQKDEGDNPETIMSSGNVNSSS
Sequence of Hepatocyte nuclear factor 4-alpha (P41235 whole entry): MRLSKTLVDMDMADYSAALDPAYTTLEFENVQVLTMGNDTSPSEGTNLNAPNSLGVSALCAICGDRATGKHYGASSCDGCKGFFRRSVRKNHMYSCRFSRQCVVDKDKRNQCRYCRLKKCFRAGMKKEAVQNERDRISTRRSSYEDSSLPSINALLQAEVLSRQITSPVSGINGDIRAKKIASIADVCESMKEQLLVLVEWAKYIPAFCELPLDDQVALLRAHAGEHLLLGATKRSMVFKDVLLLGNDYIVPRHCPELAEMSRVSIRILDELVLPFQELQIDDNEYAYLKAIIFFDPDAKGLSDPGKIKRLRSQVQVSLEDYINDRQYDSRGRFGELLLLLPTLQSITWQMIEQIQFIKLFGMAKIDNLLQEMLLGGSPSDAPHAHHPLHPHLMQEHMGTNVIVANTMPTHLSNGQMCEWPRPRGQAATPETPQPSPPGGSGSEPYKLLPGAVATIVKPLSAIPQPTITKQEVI
Sequence of Eukaryotic translation initiation factor 4E (P63073 whole entry): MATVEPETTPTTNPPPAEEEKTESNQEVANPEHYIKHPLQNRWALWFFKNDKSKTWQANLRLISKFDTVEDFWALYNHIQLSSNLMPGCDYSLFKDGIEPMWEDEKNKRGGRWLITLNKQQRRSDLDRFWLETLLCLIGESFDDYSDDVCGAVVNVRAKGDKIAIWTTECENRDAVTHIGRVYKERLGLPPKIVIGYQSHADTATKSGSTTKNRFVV
Sequence of Genome polyprotein (P29990 2492-3391 limits assumed): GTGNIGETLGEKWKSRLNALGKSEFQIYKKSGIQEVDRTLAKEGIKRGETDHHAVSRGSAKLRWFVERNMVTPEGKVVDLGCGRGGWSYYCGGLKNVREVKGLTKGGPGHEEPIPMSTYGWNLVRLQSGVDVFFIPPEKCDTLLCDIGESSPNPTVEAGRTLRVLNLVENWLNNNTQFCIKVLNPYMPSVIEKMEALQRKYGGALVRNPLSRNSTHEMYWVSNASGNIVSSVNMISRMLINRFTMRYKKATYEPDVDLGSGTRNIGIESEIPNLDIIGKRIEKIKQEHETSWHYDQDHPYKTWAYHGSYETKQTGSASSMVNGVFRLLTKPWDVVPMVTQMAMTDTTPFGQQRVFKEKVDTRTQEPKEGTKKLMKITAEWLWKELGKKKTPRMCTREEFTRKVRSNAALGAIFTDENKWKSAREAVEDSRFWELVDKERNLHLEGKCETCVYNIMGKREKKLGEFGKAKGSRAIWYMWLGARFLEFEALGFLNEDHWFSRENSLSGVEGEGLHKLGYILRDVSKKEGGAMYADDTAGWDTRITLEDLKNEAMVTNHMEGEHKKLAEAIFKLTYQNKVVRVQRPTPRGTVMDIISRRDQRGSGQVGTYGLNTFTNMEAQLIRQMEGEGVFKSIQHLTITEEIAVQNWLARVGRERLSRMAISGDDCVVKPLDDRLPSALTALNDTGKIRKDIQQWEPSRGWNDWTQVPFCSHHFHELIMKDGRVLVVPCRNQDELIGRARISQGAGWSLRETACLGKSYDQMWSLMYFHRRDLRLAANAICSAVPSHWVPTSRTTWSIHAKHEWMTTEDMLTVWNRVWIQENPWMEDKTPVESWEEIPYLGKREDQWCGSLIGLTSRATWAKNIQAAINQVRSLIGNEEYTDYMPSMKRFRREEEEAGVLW

The AC50 is the midpoint of the concentration-response curve, whichever way the signal moves. As to `O=C(O[C@H]1C[N@+]2(Br)CC[C@@H]1CC2)C(O)(c1ccccc1)c1ccccc1`, the AC50 entry at Cytochrome P450 1A2, at Cytochrome P450 2C9, at Cytochrome P450 3A4, on Cytochrome P450 2C19 and at Cytochrome P450 2D6 was “inactive” throughout.

As a reminder, the EC50 is the midpoint of the concentration-response curve. Broadly, the IC50 is the midpoint of a concentration-inhibition curve. `CCOc1ccccc1OCCCCCc1c(C)n[nH]c1C`: the EC50 in [1] is 8.55 µM (active); in data set [2] it was > 49.8 µM (not active); in [4] it was > 49.8 µM (inactive). Further, the IC50 in data set [3] was > 64 µM (inactive).

With `CCc1nc2sc3c(Cl)ncnc3c2c2c1CCCC2`, the EC50 was > 32 µM (inactive) on Mu-type opioid receptor, > 32 µM (inactive) in [5] and > 31.5 µM (inactive) on Beta-galactosidase. Further, the IC50 is 5.42 µM (active) in data set [6], > 32 µM (inactive) in [7] and greater than 32 µM in data set [8].

One may read the CC50 as the concentration giving 50% cytotoxicity. Take `Cc1ccc(CS(=O)(=O)c2ncc(Cl)c(C(=O)Nc3nnc(C(C)C)s3)n2)cc1`: the IC50 on Genome polyprotein is > 100 µM (active); in data set [9], > 20 µM (inactive); in data set [10], 3.27 µM (active); in data set [11] it was 10.7 µM (active); at Bcl-2-related protein A1, > 20 µM (inactive). In addition, the results for the 50% cytotoxic concentration (CC50) (in the data set on Vero; in data set [15]) were 29.1 µM (active) and 28.3 µM (active), respectively. At Protein RecA, the EC50 is 0.717 µM (active). For the same compound, the AC50 in [12] was 1.52 µM (active); in data set [13] it was 4.07 µM (active); in data set [14] it was 2.95 µM (active).

Turning to `O=C(Nc1nc2ccccc2n1Cc1ccccc1Cl)c1cccs1`, the IC50 (in the data set on HEK293; at Tumor necrosis factor; in [16]; in data set [17]) was > 20 µM (inactive) each time.
